The supplement of paper PMC10307832

What was measured:
Test in all cases: relative viability (nuclei count vs DMSO), 5 days (fraction); higher = more cells survive
[1] = compound: CC1=C(CC(=O)O)c2cc(F)ccc2/C1=C\c1ccc([S+](C)[O-])cc1 [Sulindac] + N=C(N)NC(=N)NCCc1ccccc1 [Phenformin] (partner 250 µM)
In short: (§1)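 Medians of duplicate plates are given as relative viability. That measure is the nuclei count in treated wells divided by the count in vehicle wells. Counts were taken on 4× images of lung cancer cell lines in 1536-well plates, 5 days after pin-tool dosing the day after seeding with one drug alone or a fixed anchor-drug dose plus five library-drug doses (not always all listed) in √10 steps.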

[2] = compound: CN[C@@H]1C[C@H]2O[C@@](C)([C@@H]1OC)n1c3ccccc3c3c4c(c5c6ccccc6n2c5c31)C(=O)NC4 [Staurosporine] + C[C@@H](Oc1cc(-c2cnn(C3CCNCC3)c2)cnc1N)c1c(Cl)ccc(F)c1Cl [Crizotinib] (partner 1 µM)
In short: as §1

[3] = compound: CN[C@@H]1C[C@H]2O[C@@](C)([C@@H]1OC)n1c3ccccc3c3c4c(c5c6ccccc6n2c5c31)C(=O)NC4 [Staurosporine] + N=C(N)NC(=N)NCCc1ccccc1 [Phenformin] (partner 250 µM)
In short: as §1

[4] = compound: O=c1[nH]cc(F)c(=O)[nH]1 [5-Fluorouracil] + Cc1cc(Nc2cc(N3CCN(C)CC3)nc(Sc3ccc(NC(=O)C4CC4)cc3)n2)n[nH]1 [Tozasertib] (partner 0.1 µM)
In short: as §1

Row | Cell Line | relative viability ([1]; first compound 0.08 µM) | relative viability ([1]; first compound 0.253 µM) | relative viability ([1]; first compound 2.53 µM) | relative viability ([1]; first compound 8 µM) | relative viability ([2]; first compound 0.005 µM) | relative viability ([2]; first compound 0.01581 µM) | relative viability ([2]; first compound 0.05 µM) | relative viability ([2]; first compound 0.1581 µM) | relative viability ([2]; first compound 0.5 µM) | relative viability ([3]; first compound 0.005 µM) | relative viability ([3]; first compound 0.01581 µM) | relative viability ([3]; first compound 0.05 µM) | relative viability ([3]; first compound 0.1581 µM) | relative viability ([3]; first compound 0.5 µM) | relative viability ([4]; first compound 0.02 µM) | relative viability ([4]; first compound 0.2 µM) | relative viability ([4]; first compound 0.6325 µM) | relative viability ([4]; first compound 2 µM) | relative viability ([1]; first compound 0.8 µM)
1 | NCI-H1650 | 0.372 | 0.481 | 0.41 | 0.53 | 0.537 | 0.389 | 0.242 | 0.197 | 0.106 | 0.217 | 0.147 | 0.109 | 0.108 | 0.0714 | 0.408 | 0.401 | 0.317 | 0.211 | –
2 | PC-14 | 0.571 | 0.403 | 0.537 | 0.853 | 0.683 | 0.714 | 0.141 | 0.0852 | 0.0777 | 0.26 | 0.129 | 0.0894 | 0.0651 | 0.0636 | 0.54 | 0.618 | 0.599 | 0.453 | 0.403
3 | NCI-H1915 | 0.445 | 0.389 | 0.378 | 0.382 | 0.903 | – | 0.362 | 0.294 | 0.268 | 0.332 | 0.087 | 0.181 | 0.0813 | 0.0841 | 0.376 | 0.418 | 0.433 | 0.331 | –
4 | HOP-62 | 0.785 | 0.937 | 0.746 | 0.759 | 1.02 | 0.741 | 0.134 | 0.144 | 0.0781 | 0.426 | 0.232 | 0.133 | 0.102 | 0.1 | 0.368 | 0.364 | 0.389 | 0.319 | –
5 | NCI-H1975 | 0.27 | 0.404 | 0.403 | 0.457 | 0.369 | 0.276 | 0.212 | 0.121 | 0.115 | 0.208 | 0.135 | 0.136 | 0.103 | 0.0912 | 0.847 | 0.707 | 0.386 | 0.201 | 0.365
6 | BEN | 0.284 | 0.276 | 0.218 | 0.275 | 1.22 | 0.754 | 0.473 | 0.379 | 0.266 | 0.247 | – | 0.211 | 0.197 | 0.184 | 0.43 | 0.479 | 0.491 | 0.535 | 0.227
7 | NCI-H1437 | 0.251 | 0.321 | 0.301 | 0.373 | 0.924 | 0.702 | – | 0.545 | 0.449 | 0.247 | – | 0.187 | 0.11 | 0.118 | 0.34 | 0.259 | 0.191 | 0.139 | 0.197
8 | EMC-BAC-2 | 0.551 | 0.566 | 0.533 | 0.61 | 0.452 | 0.215 | 0.132 | 0.177 | 0.137 | 0.252 | 0.179 | 0.17 | 0.189 | 0.164 | 0.293 | 0.292 | 0.33 | 0.287 | 0.352
9 | SW 1573 | 0.458 | 0.365 | 0.388 | 0.509 | 0.678 | 0.583 | 0.186 | 0.134 | 0.119 | 0.201 | 0.156 | 0.0959 | 0.101 | 0.0586 | 0.205 | 0.175 | 0.183 | 0.153 | –
10 | NCI-H661 | 0.244 | 0.258 | 0.246 | 0.277 | 1.03 | 0.9 | 0.81 | 0.501 | 0.415 | 0.277 | 0.235 | 0.27 | 0.19 | 0.131 | 0.365 | 0.355 | 0.342 | 0.319 | 0.28
11 | LXF-289 | 0.551 | 0.559 | 0.517 | 0.559 | 0.751 | – | 0.258 | 0.0796 | 0.0672 | 0.325 | 0.0737 | 0.172 | 0.0511 | 0.0502 | 0.189 | 0.164 | 0.134 | 0.138 | 0.491
12 | LOU-NH91 | 0.708 | 0.68 | 0.717 | 0.853 | 0.721 | 0.594 | 0.493 | 0.413 | 0.325 | 0.467 | 0.302 | 0.334 | 0.228 | 0.168 | 0.701 | 0.705 | 0.564 | 0.243 | 0.681
13 | NCI-H2347 | 0.379 | 0.33 | 0.375 | 0.381 | 0.559 | 0.353 | 0.364 | 0.415 | 0.449 | 0.269 | 0.253 | 0.201 | 0.216 | 0.165 | 0.606 | 0.425 | 0.303 | 0.292 | –
14 | NCI-H2009 | 0.549 | 0.521 | 0.53 | 0.538 | 0.255 | 0.22 | 0.174 | 0.123 | 0.0888 | 0.207 | 0.188 | 0.216 | 0.131 | 0.0831 | 0.802 | 0.793 | 0.684 | 0.474 | 0.45
15 | HCC-827 | 0.395 | 0.367 | 0.413 | 0.426 | 0.927 | 0.803 | 0.583 | 0.575 | 0.442 | 0.43 | 0.35 | 0.214 | 0.167 | – | – | 0.433 | 0.391 | 0.29 | 0.414
16 | NCI-H727 | 0.406 | 0.554 | 0.564 | 0.584 | 0.3 | 0.322 | 0.228 | 0.181 | 0.164 | 0.404 | 0.319 | 0.379 | 0.219 | 0.146 | 0.659 | 0.646 | 0.691 | 0.571 | –
17 | CAL-12T | 0.662 | 0.615 | 0.529 | 0.681 | 0.16 | 0.0981 | 0.0843 | 0.113 | 0.0906 | 0.205 | 0.165 | 0.235 | 0.103 | 0.112 | 0.337 | 0.385 | 0.316 | 0.221 | 0.418
18 | PC-3 [JPC-3] | 0.475 | 0.494 | 0.458 | 0.548 | – | – | 0.707 | 0.498 | 0.425 | – | 0.394 | 0.352 | 0.247 | 0.181 | 0.828 | 0.881 | 0.827 | 0.554 | 0.657
